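Where inhibition never reached the appropriate level, the endpoint shown equals the highest concentration tested. Otherwise, values were interpolated linearly from a five-concentration, 48-hour dose response in 96-well plates. Here, GI50 denotes the concentration required for 50% inhibition of growth. TGI is the concentration that stops growth completely.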
What was measured:
Test in all cases: NCI-60 cell line screen, 48 h
[1] = system: CAKI-1 renal
[2] = system: MOLT-4 leukemia
[3] = system: SK-MEL-5 melanoma
[4] = system: SK-OV-3 ovarian
[5] = system: SN12C renal
[6] = system: SW-620 colon
[7] = system: U251 CNS
[8] = system: UACC-257 melanoma

Compound | TGI [1] [µM] | TGI [2] [µM] | TGI [3] [µM] | TGI [4] [µM] | TGI [5] [µM] | TGI [6] [µM] | TGI [7] [µM] | TGI [8] [µM] | GI50 [1] [µM] | GI50 [2] [µM] | GI50 [3] [µM] | GI50 [4] [µM] | GI50 [5] [µM] | GI50 [6] [µM] | GI50 [7] [µM] | GI50 [8] [µM]
CN(C)N1C(=O)SCC(c2ccccc2)(c2ccccc2)C1=O | > 100 | > 100 | > 100 | > 100 | > 100 | > 100 | > 100 | > 100 | – | – | – | – | – | – | – | –
C=C1C(=O)O[C@H]2[C@H]1CC/C(COC(=O)N[C@H]1C[C@H](O[C@H]3C[C@](O)(C(=O)CO)Cc4c(O)c5c(c(O)c43)C(=O)c3c(OC)cccc3C5=O)O[C@@H](C)[C@H]1O)=C\CC[C@@]1(C)O[C@@H]21 | > 50 | 2.83 | 18.1 | > 50 | 14.4 | 3 | 11.2 | 13.7 | 7.76 | 1.03 | 8.1 | > 50 | 5.07 | 1.15 | 4.87 | 7.17
CCn1cc(/C=C2\Oc3cc(OCC#N)ccc3C2=O)c2cc(OC)ccc21 | 28.9 | > 100 | 4.17 | > 78.5 | > 100 | > 100 | > 48.7 | > 100 | 0.0663 | 0.187 | 0.204 | 1.7 | 0.711 | 0.131 | 0.425 | 57.8
COc1ccc(-c2nc(-c3nc4cc(Cl)c(F)cc4[nH]3)c3ccccn23)cc1 | > 100 | > 100 | 6.79 | > 100 | > 100 | > 100 | > 100 | 13.2 | 5.35 | 4.21 | 2.22 | > 100 | 11.2 | 5.38 | 6.67 | 3.15
O=C1/C(=C\c2ccco2)Oc2ccccc21 | > 100 | > 100 | > 100 | > 100 | > 100 | > 100 | > 100 | > 100 | – | – | – | – | – | – | – | –
O=C(c1ccc2ccccc2c1)c1nc2cc(F)ccc2[n+]([O-])c1C(F)(F)F | 17.6 | 53.8 | 67.6 | 34.1 | 71.4 | 37 | 33.9 | 35.3 | 4.29 | 22.9 | 24.9 | 19.4 | 26.6 | 17.3 | 18.1 | 17.4
CCCC1(CN2c3ccccc3Sc3ccc(Cl)cc32)CCN(CC)C1 (configuration not stated) | 3.2 | > 100 | 3 | 3.45 | 8.74 | 3.31 | 3.16 | 3.56 | 1.7 | 3.27 | 1.62 | 1.77 | 3.03 | 1.7 | 1.66 | 1.77
CCOC(=O)c1ccc(NC(=O)NC2=NCCS2)cc1 | > 100 | > 100 | > 100 | 7.76 | > 100 | > 100 | > 100 | > 100 | 1.39 | 1.17 | 2.7 | 1.03 | 0.954 | 22.9 | 0.899 | > 100

Source: PubChem BioAssay (NCI)
